Measured values: patent US20240398737A1, “FUNCTIONALIZED LONG-CHAIN HYDROCARBON MONO- AND DI-CARBOXYLIC ACIDS AND DERIVATIVES THEREOF, AND THEIR USE FOR THE PREVENTION OR TREATMENT OF DISEASE” (Espervita Therapeutics, Inc., priority 2021, published 2024)
Read-outs that look alike come from different tables or passages of the source.

How the values were obtained:
[1] = molecular target: DDR2 (Homo sapiens (Human), UniProt Q16832); experiment: Wild type kinase screen: DDR2; format: biochemical; conditions: compound at 10 μM, 10 μM ATP, Data 1 and Data 2 duplicates
[2] = molecular target: ERK7/MAPK15 (Homo sapiens (Human), UniProt Q8TD08); experiment: Wild type kinase screen: ERK7/MAPK15; format: biochemical; conditions: compound at 10 μM, 10 μM ATP, Data 1 and Data 2 duplicates
[3] = molecular target: NEK2 (Homo sapiens (Human), UniProt P51955); experiment: Wild type kinase screen: NEK2; format: biochemical; conditions: compound at 10 μM, 10 μM ATP, Data 1 and Data 2 duplicates
[4] = Toxicokinetics in female rats (4-day oral gavage study, Day 1); format: in vivo; conditions: female rat plasma; for Dose proportionality of the increases in mean Cmax and AUC0-24: 100 to 300 mg/kg/day; for Cmax / Tmax / AUC(0-t): Wistar Han (RccHan:WIST); for Cmax / Tmax / AUC(0-t) / AUC0-24 (h*ng/mL): Day 1; for AUC(0-t): read-out: AUC0-24
Description: Dosing Solutions. The dosing solutions of Compound I-1 or Compound I-32 were prepared as follows: a 60-mg/mL stock solution was prepared for Compound I-1 or Compound I-32 by dissolving Compound I-1 or Compound I-32 in DI water. Two molar equivalents of NaOH was added for every 1 mole of Compound I-1 or Compound I-32 (1.1 μL of 5N NaOH was added for every mg of Compound I-32 or Compound I-1). The pH of the stock solution for Compound I-1 or Compound I-32 was adjusted to achieve a final pH of 8.2 to 8.6. The resultant stock formulations were further diluted with vehicle to achieve the 30 mg/mL concentration. The 30-mg/mL formulations were diluted with control article to achieve the 10-mg/mL concentration. All dilution calculations were based on the nominal concentration of the stock solution. Formulations of Compound I-1 or Compound I-32 were prepared on the day of dosing were stored at room temperature (15 to 30° C.) and used within 8 hours of preparation completion. The control was 1.5% (w/v) carboxymethyl cellulose+0.2% (v/v) Tween 20 in DI water for as Group 1 formulations. The vehicle used for Compound I-1 and Compound I-32 formulations was 3% (w/v) carboxymethyl cellulose+0.4% (v/v) Tween 20 in DI water.
Bioanalytical and Toxicokinetic Analyses. Blood samples (approximately 0.3 mL) were collected from nonfasted toxicokinetic animals via a jugular vein on Day 1 of the dosing phase, as indicated in the following table. Samples were collected predose and approximately 1, 2, 4, and 24 hours postdose.
Blood was collected into tubes containing potassium (K2) EDTA as the anticoagulant. Samples were maintained on chilled cryoracks and were centrifuged within 1 hour of collection. Plasma was harvested into two approximately equal aliquots and stored on dry ice until placed in a freezer, set to maintain −60 to −80° C., until analyzed. Plasma samples were analyzed for Compound I-1 and Compound I-32 content using a generic Tier 1 qualified liquid chromatography-tandem mass spectrometry (LC-MS/MS) method.
In-Life Phase. Animals were dosed once daily for up to 4 days via oral gavage at a volume of 10 mL/kg. Animals in Group 2 and 3 were administered Compound I-1. Animals in Group 4 and 5 were administered Compound I-32. The control article for Group 1 was 1.5% (w/v) carboxymethyl cellulose+0.2% (v/v) Tween 20 in deionized (DI) water. The vehicle used to prepare Compound I-1 and Compound I-32 formulations was 3% (w/v) carboxymethyl cellulose+0.4% (v/v) Tween 20 in DI water.

[5] = test system: Mouse primary hepatocytes; experiment: 14C-acetate incorporation into total lipids in mouse primary hepatocytes; format: cell-based; conditions: incorporation of 14C-acetate in primary mouse hepatocyte total lipids, 4 hours, 100 μM
Description: After perfusion, collagen digested liver cells were re-suspended in William's E media (11 mM glucose) (Gibco) supplemented with 10% fetal bovine serum (FBS) (Gibco), 2 mM L-glutamine (Gibco) and 1% Antibiotic-Antimycotic (Gibco) mixture and seeded in white opaque 96-well plates. On the following day, the cells were serum-starved for 2 hours, then treated with 0 μM, 0.1 μM, 0.3 μM, 0.5 μM, 1 μM, 3 μM, 10 μM, and 100 μM of Compound I-32, Compound I-1, Compound III-1 or Reference Compound (e.g., any of Compounds A-E or bempedoic acid) in the presence of ^14C-Acetate (1 μCi/ml, PerkinElmer). Each of Compound I-32, Compound I-1, Compound III-1, and Reference Compound was solubilized in 100% DMSO to a final concentration of 100 mM stock solution. In the experimental condition, the stock solution was diluted in serum free media (William's E media (11 mM glucose) (Gibco), 2 mM L-glutamine (Gibco) and 1% Antibiotic-Antimycotic) to yield the desired concentration of each compound. […] After 4 hours of treatment, the plates were washed two times with PBS (×1) and 100 μL microscint fluid (Microscint 0, part #601361) was added in each well. Plates were wrapped with aluminum foil and were shaken at 250 rpm for 2 h. After 2 h of shaking, ^14C incorporation into lipid was determined by liquid scintillation counting using a TopCount NXT Microplate Scintillation and Luminescence Counter (Perkin Elmer).
The effects of Compound I-32, Compound I-1, and Compound III-1 on mouse primary hepatocyte lipogenesis are represented in Table 13. Each Compound was assayed at a concentration of 0 μM (vehicle control), 0.1 μM, 0.3 μM, 0.5 μM, 1 μM, 3 μM, 10 μM, and 100 μM, unless otherwise noted. Statistically significant inhibition was determined by one-way ANOVA and Dennett's post hoc test where appropriate. […] IC50 values were determined by nonlinear regression. All statistical analyses were carried out using GraphPad Prism 8 software. A p-value of less than or equal 0.05 was considered significant.

Chain of ERK7/MAPK15 (Q8TD08 whole entry): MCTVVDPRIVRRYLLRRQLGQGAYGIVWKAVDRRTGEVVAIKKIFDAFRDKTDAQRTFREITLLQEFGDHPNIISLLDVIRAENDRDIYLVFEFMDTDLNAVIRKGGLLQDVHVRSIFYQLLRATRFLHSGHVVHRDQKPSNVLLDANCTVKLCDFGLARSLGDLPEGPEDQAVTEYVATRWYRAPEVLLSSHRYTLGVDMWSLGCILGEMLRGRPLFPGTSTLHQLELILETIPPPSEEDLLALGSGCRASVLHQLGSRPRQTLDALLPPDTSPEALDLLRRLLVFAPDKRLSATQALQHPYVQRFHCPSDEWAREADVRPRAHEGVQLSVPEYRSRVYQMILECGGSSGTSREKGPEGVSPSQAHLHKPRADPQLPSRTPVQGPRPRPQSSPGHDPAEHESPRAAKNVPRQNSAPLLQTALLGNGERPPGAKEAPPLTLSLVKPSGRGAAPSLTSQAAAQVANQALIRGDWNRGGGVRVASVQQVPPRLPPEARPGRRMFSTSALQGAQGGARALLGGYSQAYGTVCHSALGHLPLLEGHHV
Chain of NEK2 (P51955 whole entry, species assumed): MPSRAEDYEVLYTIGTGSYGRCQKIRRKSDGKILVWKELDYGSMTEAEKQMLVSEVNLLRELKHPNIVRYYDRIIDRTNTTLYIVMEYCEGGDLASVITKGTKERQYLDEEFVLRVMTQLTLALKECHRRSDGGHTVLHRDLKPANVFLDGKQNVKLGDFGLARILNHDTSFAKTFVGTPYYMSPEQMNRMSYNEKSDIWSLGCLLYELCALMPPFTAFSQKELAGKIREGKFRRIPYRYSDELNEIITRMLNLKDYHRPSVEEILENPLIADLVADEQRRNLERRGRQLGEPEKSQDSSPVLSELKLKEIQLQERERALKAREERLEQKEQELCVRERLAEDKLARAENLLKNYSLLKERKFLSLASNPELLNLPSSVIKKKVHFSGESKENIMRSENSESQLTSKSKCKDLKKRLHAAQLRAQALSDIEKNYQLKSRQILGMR
Chain of DDR2 (Q16832 22-855, species assumed): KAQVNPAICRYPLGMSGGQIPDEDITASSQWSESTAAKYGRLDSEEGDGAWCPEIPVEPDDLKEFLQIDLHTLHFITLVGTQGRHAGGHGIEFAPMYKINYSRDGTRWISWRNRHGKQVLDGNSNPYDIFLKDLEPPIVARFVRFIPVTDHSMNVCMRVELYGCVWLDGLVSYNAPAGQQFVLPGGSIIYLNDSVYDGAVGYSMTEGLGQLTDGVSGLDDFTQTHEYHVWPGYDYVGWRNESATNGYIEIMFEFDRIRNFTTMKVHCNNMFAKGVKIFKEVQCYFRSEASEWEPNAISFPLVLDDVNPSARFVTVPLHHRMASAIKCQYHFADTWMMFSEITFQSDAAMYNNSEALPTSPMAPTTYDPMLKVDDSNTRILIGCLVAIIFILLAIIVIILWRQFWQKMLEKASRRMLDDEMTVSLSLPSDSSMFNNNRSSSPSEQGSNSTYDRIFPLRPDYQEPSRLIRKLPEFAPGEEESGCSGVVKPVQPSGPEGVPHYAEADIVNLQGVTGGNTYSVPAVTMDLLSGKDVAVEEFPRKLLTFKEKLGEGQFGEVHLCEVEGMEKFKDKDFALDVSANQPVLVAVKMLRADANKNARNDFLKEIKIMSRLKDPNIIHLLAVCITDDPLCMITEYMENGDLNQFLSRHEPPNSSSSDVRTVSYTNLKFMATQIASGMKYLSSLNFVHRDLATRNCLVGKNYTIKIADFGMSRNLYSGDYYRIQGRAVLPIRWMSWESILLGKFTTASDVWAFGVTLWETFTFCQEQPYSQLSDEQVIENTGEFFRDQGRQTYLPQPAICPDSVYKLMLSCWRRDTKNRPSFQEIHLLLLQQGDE

Row | Structure (SMILES) | % Enzyme Activity (relative to DMSO controls) [1] [%] | % Enzyme Activity (relative to DMSO controls) [2] [%] | % Enzyme Activity (relative to DMSO controls) [3] [%] | Dose proportionality of the increases in mean Cmax and AUC0-24 [4] | Cmax ([4]; 100 mg/kg/day oral gavage) [µg/mL] | Tmax ([4]; 100 mg/kg/day oral gavage) [h] | AUC(0-t) ([4]; 100 mg/kg/day oral gavage) [µg·h/mL] | Cmax ([4]; 300 mg/kg/day oral gavage) [µg/mL] | Tmax ([4]; 300 mg/kg/day oral gavage) [h] | AUC(0-t) ([4]; 300 mg/kg/day oral gavage) [µg·h/mL] | AUC0-24 (h*ng/mL) ([4]; 100 mg/kg/day oral gavage) | % change from control at 100 μM ± SEM(n) [5] | AUC0-24 (h*ng/mL) ([4]; 300 mg/kg/day oral gavage)
1 | CC(C)(CCCCc1ccc(CCCCC(C)(C)C(=O)O)cc1)C(=O)O [Compound I-1, 6-[4-(5-carboxy-5-methylhexyl)-phenyl]-2,2-dimethylhexanoic acid] | 69.84 | 100.06 | 85.17 | less than dose proportional | 415 | 2 | 5460 | 787 | 1 | 7520 | 5,460,000 h*ng/mL | −84 ± 1.0 (n = 6) % | –
2 | CC(C)(CCCCc1cccc(CCCCC(C)(C)C(=O)O)c1)C(=O)O [Compound I-32, 6-[3-(5-carboxy-5-methylhexyl)-phenyl]-2,2-dimethylhexanoic acid] | 85.83 | 102.21 | 87.7 | approximately dose proportional | 142 | 2 | 2030 | 406 | 4 | 7880 | – | −82 ± 2.8 (n = 6) % | 7,880,000 h*ng/mL
